pEC50, pIC50: −log10 of the molar value. Converted amounts (≈) assume the structure as drawn. Read-outs that look alike come from different tables or passages of the source.
Experiments:
[1] = Thermodynamic (equilibrium) solubility; format: physicochemical; conditions: read-out: thermodynamic (or equilibrium) solubility
From the text: The main reason for failure in drug development is poor biopharmaceutical properties, which include low aqueous solubility, chemical instability.
The biopharmaceutical properties of the synthesized M13 (5-glutathione-6-shogaol) were characterized.

[2] = Single-dose maximum tolerated dose (MTD) general toxicity study; format: in vivo, CD-1 mice
Protocol: A general toxicity study was performed by using maximum tolerated dose (MTD) of M13. Eight-week old mice were orally administered 1000 mg/kg or with PBS. On day one and day 7, mice were examined for weight loss and clinical scores were noted. Clinical signs were scored by assessing activity, appearance, and body condition for seven days.
To further determine the potential acute toxicity of M13 in vivo, a single-dose maximum tolerated dose (MTD) study of M13 was performed in CD-1 mice. Eight-week-old female mice were orally administered a single dose of M13 (1000 mg/kg) or PBS (as control) on day 0 and subjected to regular water and diet for 7 days.

SARS-CoV-2 = SARS-CoV-2 infectivity IF assay (Nucleocapsid staining) in Vero cells; format: cell-based; conditions: Vero cells pre-incubated 60 minutes prior to infection, 24 hours, read-out: EC50 antiviral activity against SARS-CoV-2
Protocol: Cells were seeded in complete media at 8000 cells/100 μl/well in four plates: two for the cytotoxicity assay and two for the infectivity assay. After seeding, the plates were incubated at room temperature for 5 minutes for even distribution, and then at 37° C., 5% CO2 until the following day.
Formulations were prepared at twice the final concentration, and they were diluted to the final desired concentration by an equal volume of virus or media. The initial amounts weighted and the volume in which these were resuspended are recorded.
The prepared stocks (0.5 mg/ml) were diluted in 800 μl of infection media to twice the final drug concentration (200 μM). […]
Residual formaldehyde was quenched with 50 mM Ammonium Chloride, after which cells were permeabilized (0.1% Triton X 100) and stained with an antibody recognizing SARS-CoV2 Nucleocapsid protein (Thermo Fisher MA536271). The primary antibody was detected with an Alexa-488 conjugate secondary antibody (Life Technologies, A21207), and nuclei were stained with Hoechst. Images were acquired on a Cell-Insight CX5 high content platform (Thermo Scientific) using a 4× objective, and percentage infection calculated using CellInsight CX5 software (infected cells/total cells×100).
Normalized percentages of inhibition were calculated using the following formula: […]

human T lymphocytes = experiment: Immunogenic effects on T lymphocytes in cultured PBMCs (flow cytometry); format: cell-based; conditions: 20 μM, 4-day, vs SC and standard control
Protocol: (§1) PBMCs were provided by STEMCELL Technologies (STEMCELL Canada Inc.) and maintained in ImmunoCult™-XF T-cell Expansion Medium (Cat #10981). HIEC-6 cells were maintained in OptiMEM 1 Reduced Serum Medium supplemented with 20 mM HEPES, 10 mM GlutaMAX, 10 ng/mL Epidermal Growth Factor, 4% (v/v) fetal bovine serum (FBS), and 1% penicillin-streptomycin (PS). HCT-116 cells were maintained in ATCC-formulated McCoy's 5a medium, supplemented with 10% (v/v) FBS and 1% PS. Caco-2/BBe cells were grown in DMEM supplemented with 10% (v/v) FBS and 1% PS (v/v). Human colon cancer stem cells (HC-CSC) were maintained in complete growth media with serum and antibiotics (Cat #M36112-39S) from Celprogen Inc. (Torrance, CA, USA).
To evaluate the immunogenic effects of M13 on human T lymphocytes, PBMCs were cultured in blank medium (standard control), medium containing CD3/CD28 activator (positive control), medium containing solvent (solvent control, SC), and medium containing M13 solution (20 μM). All the groups were cultured in the presence or absence of interleukin-2 (IL-2). After a 4-day incubation, PBMCs were labeled with immunofluorescent dyes and analyzed using flow cytometry.

HC-CSC = experiment: MTT viability assay, 2D culture; format: cell-based, human
Protocol: as §1
(§2) The […] (MTT) assay was used to study the effects of M13 on the viability of four 2D-cultured human intestinal cell lines (HIEC-6, HCT-116, Caco-2/BBe, and HC-CSC).

HCT-116 = experiment: MTT viability assay, 2D culture; format: cell-based, human
Protocol: as §1, §2

Caco-2/BBe cells = experiment: MTT viability assay, 2D culture; format: cell-based, human
Protocol: as §1, §2
Next, the anti-cancer activities of free M13, NL, and M13-NL were compared against Caco-2/BBe cells.

[3] = test system: AOM/DSS-induced colon tumors; experiment: AOM/DSS-induced CAC mouse model, oral gavage; format: in vivo, C57BL/6J mice; conditions: 5 mg/kg oral, vs AOM/DSS group
Protocol: Female C57BL/6J mice (Strain #:000664, The Jackson Laboratory, Bar Harbor, ME), female interleukin-10 knock-out (IL10^−/− mice, B6.129P2-IL10 tmlCgn, The Jackson Laboratory), and female CD-1 mice (CD-1@IGS Mouse, outbred, Charles River) were housed in a clean facility maintained at 22±2° C. and 30-70% relative humidity with a 12-h light/dark cycle. The diet (ABDIET@PICOLAB®, PMI Nutrition International LLC, Arden Hills, MN, USA) and water were provided ad libitum. Mice experiments were performed following ARRIVE guidelines 2.0, with approval from the Georgia State University Institutional Animal Care and Use Committee (IACUC, Protocol #A20039).
An AOM/DSS-induced CAC mouse model (C57BL/6J) was used to test the anti-cancer effects of free M13, NL, and M13-NL. […] Healthy mice were used as the control group (WT group).
Histological assessments of the colon tissues from AOM/DSS-induced CAC mice were performed. […] Immunofluorescence (IF) staining of apoptotic cells (TUNEL) and immunohistochemical (IHC) staining of Ki-67 were used to investigate the pro-apoptotic and anti-proliferative effects of M13-NL in vivo.

[4] = CD-1 mice, single oral dose 1000 mg/kg, day 7

CCCCCC(CC(=O)CCc1ccc(O)c(OC)c1)SCC(NC(=O)CCC(N)C(=O)O)C(=O)NCC(=O)O (stereo not shown) [M13, 5-glutathione-6-shogaol]
solubility thermodynamic ([1]; Example 1): 1390 µM (≈ 812 µg/mL) | solubility thermodynamic ([1]; as printed in Example 6): 1390 µM (≈ 811 µg/mL) | death or differences in physiological indices ([2]; CD-1 mice, single oral dose 1000 mg/kg, 7 days, vs PBS): no significant death or differences | body weight change, spleen-to-body weight ratio, blood physiological and biochemical indices [2, 4]: no significant difference | pathological signs in the anatomical organs [2, 4]: no pathological signs | MTD at 168 h ([2]; mouse, in vivo, single-dose oral, mice): > 1000 mg/kg | weight loss and clinical signs ([2]; oral 1000 mg/kg, seven days of observation, vs PBS): No significant changes | white blood cell number, red blood cell number, hemoglobin levels, parameters of hepatic or renal function ([2]; oral 1000 mg/kg, vs PBS): no significant differences | pEC50 (SARS-CoV-2; Severe acute respiratory syndrome coronavirus 2, Vero): ~4.44 | pEC50 (SARS-CoV-2): 4.45 | proliferation of activated CD4+ and CD8+ lymphocytes (human T lymphocytes; activated-stage (with IL-2)): reduced proliferation | percentages of CD4+ and CD8+ T-cell populations and T-cell proliferation status (human T lymphocytes; resting-stage (without IL-2)): similar | fold by which IC50 against HIEC-6 is higher (HC-CSC; HIEC-6 vs HC-CSC): 5.8 fold | pIC50 (HC-CSC; Homo sapiens, 24 h incubation): 4.76 | fold by which IC50 against HIEC-6 is higher (HCT-116; HIEC-6 vs HCT-116): 2.5 fold | pIC50 (HCT-116; Homo sapiens, HCT-116, 24 h incubation): 4.40 | fold by which IC50 against HIEC-6 is higher (Caco-2/BBe cells; HIEC-6 vs Caco-2/BBe): 6 fold | pIC50 (Caco-2/BBe cells; Homo sapiens, Caco-2, 24 h): 4.78 | number of tumors [3]: failed to reduce the number of tumors

Reference: patent US20260285903A1, “SYNTHESIZED BIOLOGICALLY ACTIVE COMPOUNDS AND METHODS OF MAKING AND USING” (Georgia State University Research Foundation, Inc., priority 2023, published 2026)
